Measurements as given in ChEMBL document CHEMBL1125711, “Flavins as potential antimalarials. 2. 3-Methyl-10-(substituted-phenyl) flavins” (J Med Chem, 1991).

Legend:
Mus musculus [1] = assay: Increase in mean survival days was determined in mice after ip administration of 10 mg/kg; format: functional; settings: route intraperitoneal
Mus musculus [2] = assay: Increase in mean survival days was determined in mice after ip administration of 60 mg/kg; format: functional; settings: route intraperitoneal
Mus musculus [3] = assay: (§1) Increase in mean survival days was determined in mice after ip administration of 70 mg/kg; toxic; format: functional; settings: route intraperitoneal
Mus musculus [4] = organism: Mus musculus; assay: Effective dose required to obtain a parasitaemia of 40% 48 hours after treatment in mice; format: functional
[5] = tested on: Plasmodium vinckei vinckei; assay: Antimalarial activity against Plasmodium vinckei V52 on 10 mg/kg intraperitoneal dose; format: functional
Mus musculus [6] = assay: Antimalarial activity was evaluated against Plasmodium vinckei V52 after intraperitoneal administration at dose 15 mg/kg; format: functional
Mus musculus [7] = assay: Antimalarial activity was evaluated against Plasmodium vinckei vinckei V52 after intraperitoneal administration at dose 25 mg/kg; format: functional
[8] = tested on: Plasmodium vinckei vinckei; assay: Antimalarial activity against Plasmodium vinckei V52 on 30 mg/kg intraperitoneal dose; format: functional
Mus musculus [9] = assay: Antimalarial activity was evaluated against Plasmodium vinckei vinckei V52 after intraperitoneal administration at dose 40 mg/kg; format: functional
Mus musculus [10] = assay: Antimalarial activity was evaluated against Plasmodium vinckei vinckei V52 after intraperitoneal administration at dose 50 mg/kg; format: functional
Mus musculus [11] = assay: Antimalarial activity was evaluated against Plasmodium vinckei vinckei V52 after intraperitoneal administration at dose 60 mg/kg; format: functional
Mus musculus [12] = assay: Antimalarial activity was evaluated against Plasmodium vinckei V52 after intraperitoneal administration at dose 70 mg/kg; format: functional
[13] = tested on: Plasmodium vinckei vinckei; assay: Antimalarial activity against Plasmodium vinckei V52 after 20 mg/kg intraperitoneal dose; format: functional
Mus musculus [14] = assay: Increase in mean survival days was determined in mice after ip administration of 30 mg/kg; format: functional; settings: route intraperitoneal
Mus musculus [15] = assay: as §1; format: ADME, organism-based; parameters: dose 70 mg/kg, route intraperitoneal; settings: in vivo
Mus musculus [16] = assay: Increase in mean survival days was determined in mice after ip administration of 40 mg/kg; format: functional; settings: route intraperitoneal
Mus musculus [17] = assay: Increase in mean survival days was determined in mice after ip administration of 50 mg/kg; toxic; format: functional; settings: route intraperitoneal
Mus musculus [18] = assay: Antimalarial activity was evaluated against Plasmodium vinckei V52 after intraperitoneal administration at dose 40 mg/kg; format: functional
Mus musculus [19] = assay: Antimalarial activity was evaluated against Plasmodium vinckei V52 after intraperitoneal administration at dose 50 mg/kg; format: functional
[20] = tested on: Plasmodium vinckei vinckei; assay: Antimalarial activity against Plasmodium vinckei V52 on 70 mg/kg intraperitoneal dose; format: functional
Mus musculus [21] = assay: Increase in mean survival days was determined in mice after ip administration of 15 mg/kg; format: functional; settings: route intraperitoneal
Mus musculus [22] = assay: Increase in mean survival days was determined in mice after ip administration of 20 mg/kg; format: functional; settings: route intraperitoneal
Mus musculus [23] = assay: Antimalarial activity was evaluated against Plasmodium vinckei V52 after intraperitoneal administration at dose 20 mg/kg; format: functional
Mus musculus [24] = assay: Antimalarial activity was evaluated against Plasmodium vinckei vinckei V52 after intraperitoneal administration at dose 30 mg/kg; format: functional
Mus musculus [25] = assay: Increase in mean survival days was determined in mice after ip administration of 50 mg/kg; format: functional; settings: route intraperitoneal
[26] = tested on: Plasmodium vinckei vinckei; assay: Increase in mean survival days of Plasmodium inoculated mice (Mus musculus) after 70 mg/Kg intraperitoneal dose; format: functional
Mus musculus [27] = assay: Antimalarial activity was evaluated against Plasmodium vinckei V52 after intraperitoneal administration at dose 30 mg/kg; format: functional
Mus musculus [28] = assay: Antimalarial activity was evaluated against Plasmodium vinckei vinckeii V52 after intraperitoneal administration at dose 60 mg/kg; format: functional
Mus musculus [29] = assay: Antimalarial activity was evaluated against Plasmodium vinckei V52 after intraperitoneal administration at dose 10 mg/kg; format: functional
Mus musculus [30] = assay: Increase in mean survival days was determined in mice after ip administration of 20 mg/kg; toxic; format: functional; settings: route intraperitoneal
Mus musculus [31] = assay: Increase in mean survival days was determined in mice after ip administration of 25 mg/kg; toxic; format: functional; settings: route intraperitoneal
Mus musculus [32] = assay: Antimalarial activity was evaluated against Plasmodium vinckei vinckeii V52 after intraperitoneal administration at dose 50 mg/kg; format: functional
Mus musculus [33] = assay: Increase in mean survival days was determined in mice after ip administration of 30 mg/kg; toxic; format: functional; settings: route intraperitoneal
Mus musculus [34] = assay: Antimalarial activity was evaluated against Plasmodium vinckei V52 after intraperitoneal administration at dose 60 mg/kg; format: functional

Row | SMILES | Mean survival days (Mus musculus [1]) [days] | Mean survival days (Mus musculus [2]) [days] | ED40 (Mus musculus [4]) [µmol/kg] | Cured [5] [%] | Cured [8] [%] | Cured (Mus musculus [12]) [%] | Cured [13] [%] | Mean survival days (Mus musculus [14]) [days] | Cured [20] [%] | Mean survival days (Mus musculus [25]) [days] | also measured
1 | Cn1c(=O)nc2n(-c3cccc(C(F)(F)F)c3)c3ccccc3nc-2c1=O | 1.4 | 10 | 79.3 | 33 | 100 | 0 | 100 |  |  |  | Mean survival days (Mus musculus [3]): 7.5 days; Cured (Mus musculus [6]): 100%; Cured (Mus musculus [7]): 100%; Cured (Mus musculus [9]): 100%; Cured (Mus musculus [10]): 100%; Cured (Mus musculus [11]): 40%
2 | Cn1c(=O)nc2n(-c3cc(Cl)ccc3Cl)c3ccccc3nc-2c1=O | 0 |  |  | 0 | 0 | 0 |  | 0 |  |  | Mean survival days (Mus musculus [15]): -0.6 days
3 | Cn1c(=O)nc2n(-c3ccc(S(C)(=O)=O)cc3)c3ccccc3nc-2c1=O | 0 |  |  | 0 | 0 |  |  | 0.2 | 0 |  | Mean survival days (Mus musculus [16]): -0.5 days; Mean survival days (Mus musculus [17]): -0.8 days; Mean survival days (Mus musculus [3]): -2 days; Cured (Mus musculus [18]): 0%; Cured (Mus musculus [19]): 0%
4 | Cc1cc(Cl)cc(-n2c3nc(=O)n(C)c(=O)c-3nc3ccccc32)c1 | 0.2 |  | 85.7 | 0 |  |  |  |  | 100 |  | Mean survival days (Mus musculus [21]): 0.5 days; Mean survival days (Mus musculus [22]): 1 days; Cured (Mus musculus [6]): 60%; Cured (Mus musculus [23]): 80%; Cured (Mus musculus [7]): 100%; Cured (Mus musculus [24]): 100%; Cured (Mus musculus [9]): 100%; Cured (Mus musculus [10]): 100%
5 | COc1cc(OC)cc(-n2c3nc(=O)n(C)c(=O)c-3nc3ccccc32)c1 | 0 | 3 | 219 | 0 |  |  | 0 | 0 | 100 | 0 | Cured (Mus musculus [10]): 0%; Cured (Mus musculus [11]): 20%
6 | Cn1c(=O)nc2n(-c3cccc([N+](=O)[O-])c3)c3ccccc3nc-2c1=O |  | 1 |  |  |  | 0 |  |  |  |  | Mean survival days [26]: -0.5 days; Cured (Mus musculus [27]): 0%; Cured (Mus musculus [28]): 0%; Cured (Mus musculus [29]): 0%
7 | CCc1ccccc1-n1c2nc(=O)n(C)c(=O)c-2nc2ccccc21 | 0 |  |  | 0 |  |  | 0 |  |  |  | Mean survival days (Mus musculus [30]): -2 days; Mean survival days (Mus musculus [31]): -2 days; Cured (Mus musculus [7]): 0%
8 | Cn1c(=O)nc2n(-c3cc(C(F)(F)F)cc(C(F)(F)F)c3)c3ccccc3nc-2c1=O | 0 |  |  |  |  | 0 |  | 0 |  | 0 | Mean survival days (Mus musculus [22]): 0 days; Mean survival days [26]: 0 days; Cured (Mus musculus [27]): 0%; Cured (Mus musculus [32]): 0%; Cured (Mus musculus [23]): 0%; Cured (Mus musculus [29]): 0%
9 | Cc1ccccc1-n1c2nc(=O)n(C)c(=O)c-2nc2ccccc21 | -0.2 |  |  | 0 | 0 |  | 0 |  |  |  | Mean survival days (Mus musculus [30]): -1 days; Mean survival days (Mus musculus [33]): -2 days
10 | Cc1cc(-n2c3nc(=O)n(C)c(=O)c-3nc3ccccc32)ccc1Cl | 0 |  | 182 | 0 |  |  | 0 | 0 | 80 | 0.3 | Mean survival days (Mus musculus [16]): 0.3 days; Mean survival days [26]: 2 days; Cured (Mus musculus [18]): 0%; Cured (Mus musculus [19]): 25%; Cured (Mus musculus [34]): 100%
11 | COc1ccc(-n2c3nc(=O)n(C)c(=O)c-3nc3ccccc32)cc1 | 0 | 1 | 138 | 0 |  |  | 0 | 0.4 | 60 | 2 | Mean survival days (Mus musculus [16]): 1 days; Mean survival days (Mus musculus [15]): -0.5 days; Cured (Mus musculus [18]): 20%; Cured (Mus musculus [19]): 80%; Cured (Mus musculus [34]): 80%
